Experimental data reported in PubChem BioAssay (NCI).
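96-well plates; 48 h exposure; 5 concentrations. Endpoints by linear interpolation between flanking doses. Not reached: highest tested concentration assigned. GI50: concentration for 50% inhibition of growth. TGI marks complete inhibition of growth.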

Legend:
Test in all cases: growth of human tumour cells (NCI), 48 h
[1] = system: DMS 273 small cell lung
[2] = system: SK-MEL-5 melanoma
[3] = system: EKVX NSCLC
[4] = system: KM20L2 colon
[5] = system: COLO 205 colon
[6] = system: OVCAR-8 ovarian
[7] = system: LXFL 529 NSCLC
[8] = system: HCT-116 colon
[9] = system: DMS 114 small cell lung
[10] = system: CCRF-CEM leukemia
[11] = system: UACC-62 melanoma
[12] = system: HCC-2998 colon
[13] = system: OVCAR-3 ovarian
[14] = system: SF-295 CNS
[15] = system: HOP-18 NSCLC
[16] = system: RXF 393 renal
[17] = system: SK-MEL-28 melanoma
[18] = system: HL-60(TB) leukemia
[19] = system: SK-OV-3 ovarian
[20] = system: MALME-3M melanoma
[21] = system: KM12 colon
[22] = system: SF-539 CNS
[23] = system: HOP-92 NSCLC
[24] = system: SK-MEL-2 melanoma
[25] = system: A549 NSCLC
[26] = system: SN12C renal
[27] = system: A498 renal
[28] = system: OVCAR-5 ovarian
[29] = system: NCI-H226 lung
[30] = system: NCI-H460 lung
[31] = system: IGROV1 ovarian
[32] = system: K-562 leukemia
[33] = system: RPMI-8226 leukemia
[34] = system: OVCAR-4 ovarian
[35] = system: UO-31 renal
[36] = system: SW-620 colon
[37] = system: NCI-H522 lung
[38] = system: M14 melanoma
[39] = system: MOLT-4 leukemia
[40] = system: HOP-62 NSCLC
[41] = system: SNB-19 CNS
[42] = system: M19-MEL melanoma
[43] = system: CAKI-1 renal
[44] = system: U251 CNS
[45] = system: SR leukemia
[46] = system: SNB-78 CNS
[47] = system: HT29 colon
[48] = system: HCT-15 colon
[49] = system: SNB-75 CNS
[50] = system: NCI-H23 lung
[51] = system: ACHN renal
[52] = system: UACC-257 melanoma
[53] = system: 786-0 renal
[54] = system: DLD-1 colon
[55] = system: SF-268 CNS
[56] = system: LOX IMVI melanoma
[57] = system: XF 498 CNS
[58] = system: TK-10 renal

Structure (SMILES): CCCCCCCCCCCC(=O)OCC1OC(n2cc(F)c(=O)[nH]c2=O)C(N)C(O)C1O (centres undefined)
- TGI [1]: > 100000 nM
- TGI [2]: > 100000 nM
- TGI [3]: > 100000 nM
- TGI [4]: > 100000 nM
- TGI [5]: > 100000 nM
- TGI [6]: > 100000 nM
- TGI [7]: > 100000 nM
- TGI [8]: > 100000 nM
- TGI [9]: > 100000 nM
- TGI [10]: > 100000 nM
- TGI [11]: > 100000 nM
- TGI [12]: > 100000 nM
- TGI [13]: > 100000 nM
- TGI [14]: > 100000 nM
- TGI [15]: > 100000 nM
- TGI [16]: > 100000 nM
- TGI [17]: > 100000 nM
- TGI [18]: > 100000 nM
- TGI [19]: > 100000 nM
- TGI [20]: > 100000 nM
- TGI [21]: > 100000 nM
- TGI [22]: > 100000 nM
- TGI [23]: > 100000 nM
- TGI [24]: > 100000 nM
- TGI [25]: > 100000 nM
- TGI [26]: > 100000 nM
- TGI [27]: > 100000 nM
- TGI [28]: > 100000 nM
- TGI [29]: > 100000 nM
- TGI [30]: > 100000 nM
- TGI [31]: > 100000 nM
- TGI [32]: > 100000 nM
- TGI [33]: > 100000 nM
- TGI [34]: > 100000 nM
- TGI [35]: > 100000 nM
- TGI [36]: > 100000 nM
- TGI [37]: > 100000 nM
- TGI [38]: > 100000 nM
- TGI [39]: > 100000 nM
- TGI [40]: > 100000 nM
- TGI [41]: > 100000 nM
- TGI [42]: > 100000 nM
- TGI [43]: > 100000 nM
- TGI [44]: > 100000 nM
- TGI [45]: > 100000 nM
- TGI [46]: > 100000 nM
- TGI [47]: > 100000 nM
- TGI [48]: > 100000 nM
- TGI [49]: > 100000 nM
- TGI [50]: > 100000 nM
- TGI [51]: > 100000 nM
- TGI [52]: > 100000 nM
- TGI [53]: > 100000 nM
- TGI [54]: > 100000 nM
- TGI [55]: > 100000 nM

Structure (SMILES): CCC[CH2][Sn]([CH2]CCC)([S]C1=NCCS1)[S]C1=NCCS1
- GI50 [1]: 705 nM
- TGI [1]: 2270 nM
- GI50 [2]: 452 nM
- TGI [2]: 1760 nM
- GI50 [3]: 1340 nM
- TGI [3]: 2710 nM
- GI50 [4]: 1350 nM
- TGI [4]: 2880 nM
- GI50 [5]: 331 nM
- TGI [5]: 1500 nM
- GI50 [6]: 397 nM
- TGI [6]: 1600 nM
- GI50 [7]: 42.3 nM
- TGI [7]: 169 nM
- GI50 [8]: 615 nM
- TGI [8]: 1910 nM
- GI50 [9]: 117 nM
- TGI [9]: 435 nM
- GI50 [10]: 23.1 nM
- TGI [10]: 226 nM
- GI50 [11]: 177 nM
- TGI [11]: 814 nM
- GI50 [12]: 654 nM
- TGI [12]: 1940 nM
- GI50 [13]: 563 nM
- TGI [13]: 1870 nM
- GI50 [14]: 730 nM
- TGI [14]: 2020 nM
- GI50 [15]: 1120 nM
- TGI [15]: 2330 nM
- GI50 [16]: 84.6 nM
- TGI [16]: 301 nM
- GI50 [17]: 146 nM
- TGI [17]: 353 nM
- GI50 [18]: 298 nM
- TGI [18]: 881 nM
- GI50 [19]: 1900 nM
- TGI [19]: 3310 nM
- GI50 [20]: 157 nM
- TGI [20]: 555 nM
- GI50 [21]: 1020 nM
- TGI [21]: 2280 nM
- GI50 [22]: 164 nM
- TGI [22]: 449 nM
- GI50 [56]: 186 nM
- TGI [56]: 555 nM
- GI50 [23]: 227 nM
- TGI [23]: 529 nM
- GI50 [24]: 194 nM
- TGI [24]: 566 nM
- GI50 [25]: 1850 nM
- TGI [25]: 3550 nM
- GI50 [57]: 159 nM
- TGI [57]: 678 nM
- GI50 [58]: 390 nM
- TGI [58]: 1110 nM
- GI50 [26]: 502 nM
- TGI [26]: 1820 nM
- GI50 [27]: 507 nM
- TGI [27]: 1310 nM
- GI50 [28]: 2290 nM
- TGI [28]: 3780 nM
- GI50 [29]: 741 nM
- TGI [29]: 2120 nM
- GI50 [30]: 1520 nM
- TGI [30]: 3260 nM
- GI50 [31]: 1300 nM
- TGI [31]: 2740 nM
- GI50 [32]: 65.5 nM
- TGI [32]: 1050 nM
- GI50 [33]: 101 nM
- TGI [33]: 461 nM
- GI50 [34]: 964 nM
- TGI [34]: 2240 nM
- GI50 [35]: 1130 nM
- TGI [35]: 2510 nM
- GI50 [36]: 145 nM
- TGI [36]: 441 nM
- GI50 [37]: 13.3 nM
- TGI [37]: 56.2 nM
- GI50 [38]: 315 nM
- TGI [38]: 1240 nM
- GI50 [39]: 157 nM
- TGI [39]: 732 nM
- GI50 [40]: 2100 nM
- TGI [40]: 3550 nM
- GI50 [41]: 300 nM
- TGI [41]: 1120 nM
- GI50 [42]: 268 nM
- TGI [42]: 1450 nM
- GI50 [43]: 92.8 nM
- TGI [43]: 510 nM
- GI50 [44]: 567 nM
- TGI [44]: 1860 nM
- GI50 [46]: 124 nM
- TGI [46]: 946 nM
- GI50 [47]: 1070 nM
- TGI [47]: 2580 nM
- GI50 [48]: 338 nM
- TGI [48]: 1740 nM
- GI50 [49]: 85.7 nM
- TGI [49]: 1390 nM
- GI50 [50]: 170 nM
- TGI [50]: 670 nM
- GI50 [51]: 368 nM
- TGI [51]: 1310 nM
- GI50 [52]: 323 nM
- TGI [52]: 1440 nM
- GI50 [53]: 220 nM
- TGI [53]: 663 nM
- GI50 [54]: 275 nM
- TGI [54]: 1310 nM
- GI50 [55]: 254 nM
- TGI [55]: 908 nM
